Taste data for 18 molecules are collected here from ChEMBL document CHEMBL1122038, “Peptide sweeteners. 5. Side-chain homologues relating zwitterionic and trifluoroacetylated amino acid anilide and dipeptide sweeteners” (J Med Chem, 1982).

Structures can show the parent of a compound that is named as a salt. Peptide text beside a SMILES is read from it. * marks the point of attachment. Tfa = O=C(C(F)(F)F)*

One assay in a line: Compound was evaluated for the potency of sweet taste when sweetness of sucrose is taken as 1 on a weight basis; 150-200.
Consider `COC(=O)[C@H](Cc1ccccc1)NC(=O)[C@@H](N)CC(=O)O`, for which the Taste turned out to be 150.

In the case of `COC(=O)[C@H](Cc1ccccc1)NC(=O)C(N)C(=O)O` (some centres undefined), the Taste is 150. Consider `COC(=O)C(Cc1ccccc1)NC(=O)C(CC(=O)O)NC(=O)C(F)(F)F` (stereo not drawn) (Tfa-Asp-Phe-OMe; configuration not given here), for which the Taste turned out to be 150.

A short description of a further assay: Compound was evaluated for the potency of sweet taste when sweetness of sucrose is taken as 1 on a weight basis; Not sweet. The format is functional.
The molecule `N#Cc1ccc(NC(=O)CCC(NC(=O)C(F)(F)F)C(=O)O)cc1` (stereo in doubt; 9) registered a Taste of 0. In turn, `N#Cc1ccc(NC(=O)CCC(NC(=O)C(F)(F)F)C(=O)O)cc1` (stereo in doubt; 11) showed a Taste of 0.

On to `COC(=O)[C@H](Cc1ccccc1)NC(=O)[C@@H](N)CCC(=O)O`, for which the Taste came to 0. `N#Cc1ccc(NC(=O)C[C@@H](NC(=O)C(F)(F)F)C(=O)O)cc1` registered a Taste of 0. For `COC(=O)C(Cc1ccccc1)NC(=O)C(NC(=O)C(F)(F)F)C(=O)O` (centres undefined), the Taste was 0. Same read-out and setting: then `N#Cc1ccc(NC(=O)C(CC(=O)O)NC(=O)C(F)(F)F)cc1` (centres undefined), with 0. `N#Cc1ccc(NC(=O)C(CCC(=O)O)NC(=O)C(F)(F)F)cc1` (centres undefined) came in with a Taste of 0. Still for that read-out and setting: the same measure for `N#Cc1ccc(NC(=O)C(CCCC(=O)O)NC(=O)C(F)(F)F)cc1` (centres undefined): 0; for `N#Cc1ccc(NC(=O)CC(NC(=O)C(F)(F)F)C(=O)O)cc1` (centres undefined): 0. Still for that read-out and setting: then `N#Cc1ccc(NC(=O)C(N)C(=O)O)cc1` (centres undefined), with 0; and `N#Cc1ccc(NC(=O)C(NC(=O)C(F)(F)F)C(=O)O)cc1` (centres undefined), with 0; and `COC(=O)C(Cc1ccccc1)NC(=O)C(CCC(=O)O)NC(=O)C(F)(F)F` (centres undefined), with 0.

A short description of the next assay: Compound was evaluated for the potency of sweet taste when sweetness of sucrose is taken as 1 on a weight basis; 15-30.
Molecule `N#Cc1ccc(NC(=O)C(N)CC(=O)O)cc1` (centres undefined) displayed a Taste of 15. In turn, `N#Cc1ccc(NC(=O)C(N)CCC(=O)O)cc1` (centres undefined) displayed a Taste of 15.

The next assay can be described thus: Compound was evaluated for the potency of sweet taste when sweetness of sucrose is taken as 1 on a weight basis; 2500-3000.
With `N#Cc1ccc(NC(=O)[C@H](CC(=O)O)NC(=O)C(F)(F)F)cc1`, the Taste was 2500. The molecule `N#Cc1ccc(NC(=O)C(CCC(=O)O)NC(=O)C(F)(F)F)cc1` (centres undefined) yielded a Taste of 2500.
